US20240279232A1, “USE OF SUBSTITUTED 5-(4-METHYL-6-PHENYL-4H-BENZO[F]IMIDAZO[1,5-A][1,4] DIAZEPIN-3-YL)-1,2,4-O[…] THE TREATMENT OF INFLAMMATORY CONDITIONS” (priority 2021, published 2024)
Read-outs that look alike come from different tables or passages of the source.

Columns and labels:
[1] = target: T1, MOR (μ opioid receptor) (Homo sapiens, UniProt P35372); assay: MOR radioligand binding ([3H]-DAMGO, HEK293 cell homogenates); settings: Percent inhibition at 10,000 nM; [3H]-DAMGO
T1 construct: expressed in transfected cells; host or cells: HEK293
Experimental: (§1) Radioligand binding assays. Detailed protocols for the primary and secondary radioligand binding assays can be found in the National Institute of Mental Health's Psychoactive Drug Screening Program (NIMH PDSP) Assay Protocol Book (Roth, 2018). Briefly, primary and secondary radioligand binding assays are carried out in a final of volume of 125 μL per well in appropriate binding buffer. […] Total binding and nonspecific binding are determined in the absence and presence of 10 μM of appropriate reference compound (Naltrindole DOR, Salvinorin A KOR and DAMGO MOR). In brief, plates are usually incubated at room temperature and in the dark for 90 min. Reactions are stopped by vacuum filtration onto 0.3% polyethyleneimine (PEI) soaked 96-well filter mats using a 96-well Filtermate harvester, followed by three washes with cold PBS buffer. Scintillation cocktail is then melted onto the microwave-dried filters on a hot plate and radioactivity counted in a Microbeta counter. The data (n=6) were analyzed by nonlinear regression.
(§2) Ligand affinities were determined for KOR (κ opioid receptor), DOR (δ opioid receptor), and MOR (μ opioid receptor) using radioligand binding assays at a screening concentration of 10,000 nM. For these assays, cell homogenates from HEK293 cells that overexpressed KOR, MOR, and DOR were used in combination with [^3H]-U69593, [^3H]-DAMGO, and [^3H]-DADLE, respectively Compounds that exceeded more than 50% radioligand displacement were investigated further in concentration-dependent experiments to determine Ki values. Gamma aminobutyric acid type A receptor (GABAAR) binding was determined with rat brain homogenate and ^3H-flunitrazepam. Flunitrazepam binds GABAAR subtypes that consists of two α and two β subunits and one γ or δ subunit. Strong affinities to α1-3,5,6β1-3γ1-y/δ GABAARS have been reported for flunitrazepam. The […] GABAAR subtype expression in the brain includes 43% α1β2γ2, 15% α2β3γ2+8% α2βγ1, 10% α3β3γ2, 6% α4βγ/δ, 4% α5β3γ2, and 4% α6β2γ2/δ. Therefore, compounds with high affinity toward the synaptic benzodiazepine-sensitive receptors (BZR) predominately bind α1-3β2-3γ1-2 GABAARs. Alternatively, compounds with weak BZR binding might be selective for α4-6βγ/δ GABAARs.
(§3) Psychoactive Drug Screening Program. Detailed protocols for the primary and secondary radioligand binding assays can be found in the National Institute of Mental Health's Psychoactive Drug Screening Program (NIMH PDSP) Assay Protocol Book. Briefly, primary and secondary radioligand binding assays are carried out in a final of volume of 125 μL per well in appropriate binding buffer. The radioactive ligand concentration is close to the Kd. Total binding and nonspecific binding are determined in the absence and presence of 10 μM of appropriate reference compound, respectively. In brief, plates are usually incubated at room temperature and in the dark for 90 min. Reactions are stopped by vacuum filtration onto 0.3% polyethyleneimine (PEI) soaked 96-well filter mats using a 96-well Filtermate harvester, followed by three washes with cold PBS buffer. Scintillation cocktail is then melted onto the microwave-dried filters on a hot plate and radioactivity counted in a Microbeta counter. The data (n=6) were analyzed by nonlinear regression.

[2] = tested on: BZR (benzodiazepine site of GABAAR); assay: GABAAR/BZR binding, rat brain homogenate with 3H-flunitrazepam; settings: rat brain homogenate, 3H-flunitrazepam; for BZR %: Percent inhibition at 10,000 nM
Experimental: as §2, §3

[3] = target: T2, DOR (δ opioid receptor) (Homo sapiens, UniProt P41143); assay: DOR radioligand binding ([3H]-DADLE, HEK293 cell homogenates); settings: Percent inhibition at 10,000 nM; [3H]-DADLE
T2 construct: expressed in transfected cells; host or cells: HEK293
Experimental: as §1, §2, §3

[4] = tested on: Mouse microglia; assay: NO production (Griess assay), LPS/IFNγ-activated mouse microglia; assay type: cell-based; settings: for inhibition at 50 µM / inhibition at 10 µM: Mus musculus, Microglia, 24 h; for Inhibition of NO production (%) Mouse microglia 50 μM: 24 hours, 1 μM GABA, LPS/IFNγ
Experimental: (§4) Next, a library of GABAAR ligands was investigated to identify compounds that reduce the production of NO as a marker of anti-inflammatory activity. […] NO was quantified with a Greiss assay. Cell viability was determined with CellTiter-Glo.
Cell culture. A) HMC3 Microglia (CRL-3304) were maintained in treated cell culture flasks (Nunc, 156472) with EMEM (Corning, 10010CV) supplemented with 10% heat-inactivated FBS (Corning, 35011CV) and 100 U/mL penicillin and 100 μg/mL streptomycin (Hyclone, SV30010). Cultures were maintained at 37° C. and 5% CO2. When cells reached a density of 7×10^4 cells/mL, cultures were passaged with 0.25% Trypsin (Corning, 25-053-CI) and resuspended to a density no lower than 10,000 cells/mL. B) Human and mouse microglia cell lines were a gift from Dr. David Alvarez-Carbonell at Case Western Reserve University (Cleveland, OH). Microglia were cultured in cell culture treated flasks (Nunc, 156472) with DME/F12 media (Hyclone, SH30023.01) supplemented with 10% heat-inactivated FBS (Corning, 35011CV), 100 U/mL penicillin/100 μg/mL streptomycin (Hyclone, SV30010), and Normocin (Invivogen, ant-nr). Cultures were maintained at 37° C. and 5% CO2. […] Cultures were maintained at 37° C. and 5% CO2. Cells were passaged when they reached a density of approximately 3×10^6 cells/mL using cell scrapers (VWR, 10062-906) to lift cells from flask surface and resuspended at densities of approximately 500,000 cells/mL.
(§5) Nitric oxide production (Griess assay) and viability assay (CellTiter-Glo). 80 μL of mouse microglia culture (1×10^6 cells/mL) was plated into sterile 384 well plates representing non-activated wells. The remaining culture was activated with 50 ng/ml LPS (Invivogen, NC9836) and 150 U/mL IFNγ (R&D Systems, 485MI100) and distributed into the 384 well plates. […] Assay plates were incubated for approximately 24 hours (unless otherwise noted) at 37° C., centrifuged, and 40 μL of supernatant transferred to a new plate for analysis using the Griess Assay (Promega, Madison, WI). Absorbance at 530 nm was measured using a TECAN Infinite M1000 plate reader. The remaining 40 μL containing cells was analyzed for toxicity by the CellTiter-Glo Assay (Promega, Madison, WI). Luminescence was read using a TECAN Infinite M1000 plate reader.

[5] = target: T3, KOR (κ opioid receptor) (Homo sapiens, UniProt P41145); assay: KOR radioligand binding ([3H]-U69593, HEK293 cell homogenates)
T3 construct: expressed in transfected cells; host or cells: HEK293 (stably transfected)
Experimental: as §1, §2, §3

[6] = tested on: Mouse microglia; assay: Cell viability (CellTiter-Glo), mouse microglia; assay type: cell-based; settings: 50 μM, CellTiter-Glo
Experimental: as §4, §5

[7] = tested on: RAW macrophages; assay: NO production (Griess assay), LPS/IFNγ-activated RAW264.7 macrophages; assay type: cell-based, mouse; settings: Mus musculus, Macrophage, 24 h
[8] = tested on: HEK293; assay: Viability assay (CellTiter-Glo), HEK293; assay type: cell-based, human; settings: 120 μM, CellTiter-Glo
Experimental: (§6) The screen identified several compounds that reduced NO in activated microglia and macrophages. The tested compounds included achiral and chiral imidazodiazepines and benzodiazepines. In general, microglia were more sensitive to compound treatment with more pronounced reduction of NO than macrophages. […] Cell viability assays with HEK293 (kidney) and HepG2 (liver) cells were conducted in a concentration dependent manner. A limited number of compounds, such as GL-III-63, GL-III-76A, and GL-III-77, were toxic at 120 μM.
(§7) Viability assay. Human liver hepatocellular carcinoma (HEPG2) and human embryonic kidney 293T (HEK293T) cell lines were purchased (ATCC) and cultured in 75 cm^2 flasks (CellStar). Cells were grown in DMEM/High Glucose (Hyclone, #SH3024301) media to which non-essential amino acids (Hyclone, #SH30238.01), 10 mM HEPES (Hyclone, #SH302237.01), 5×10^6 units of penicillin and streptomycin (Hyclone, #SV30010), and 10% of heat inactivated fetal bovine serum (Gibco, #10082147) were added. Cells were harvested using 0.05% Trypsin (Hyclone, #SH3023601), washed with PBS, and dispensed into sterile white, optical bottom 384-well plates (NUNC, #142762). After three hours, small molecule DMSO solutions were transferred with a Tecan Freedom EVO liquid handling system equipped with a 100 nL pin tool (V&P Scientific). The controls were 3-dibutylamino-1-(4-hexyl-phenyl)-propan-1-one (25 mM in DMSO, positive control) and DMSO (negative control). The cells were incubated for 48 hours followed by the addition of CellTiter-Glo™, a luminescence-based cell viability assay (Promega, Madison, WI). All luminescence readings were performed on a Tecan Infinite M1000 plate reader. The assay was carried out in quadruplet with two independent runs. The data were analyzed by nonlinear regression.

[9] = tested on: HEPG2; assay: Viability assay (CellTiter-Glo), HEPG2; assay type: cell-based, human; settings: 120 μM, CellTiter-Glo
Experimental: as §6, §7

[10] = Percent inhibition at 10,000 nM, [3H]-U69593
[11] = concentration-dependent, [3H]-U69593, read-out: KOR (Ki)

T2 sequence (P41143 whole entry): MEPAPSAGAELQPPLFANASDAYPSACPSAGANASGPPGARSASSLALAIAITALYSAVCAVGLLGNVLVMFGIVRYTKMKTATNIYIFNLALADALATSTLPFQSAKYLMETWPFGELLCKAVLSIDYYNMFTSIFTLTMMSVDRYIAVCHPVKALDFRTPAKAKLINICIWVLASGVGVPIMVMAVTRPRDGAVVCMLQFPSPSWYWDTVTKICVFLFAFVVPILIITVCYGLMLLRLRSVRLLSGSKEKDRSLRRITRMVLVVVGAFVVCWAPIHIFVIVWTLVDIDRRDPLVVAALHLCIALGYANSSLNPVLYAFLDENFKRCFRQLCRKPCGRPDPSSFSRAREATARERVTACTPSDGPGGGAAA
T1 sequence (P35372 whole entry, species assumed): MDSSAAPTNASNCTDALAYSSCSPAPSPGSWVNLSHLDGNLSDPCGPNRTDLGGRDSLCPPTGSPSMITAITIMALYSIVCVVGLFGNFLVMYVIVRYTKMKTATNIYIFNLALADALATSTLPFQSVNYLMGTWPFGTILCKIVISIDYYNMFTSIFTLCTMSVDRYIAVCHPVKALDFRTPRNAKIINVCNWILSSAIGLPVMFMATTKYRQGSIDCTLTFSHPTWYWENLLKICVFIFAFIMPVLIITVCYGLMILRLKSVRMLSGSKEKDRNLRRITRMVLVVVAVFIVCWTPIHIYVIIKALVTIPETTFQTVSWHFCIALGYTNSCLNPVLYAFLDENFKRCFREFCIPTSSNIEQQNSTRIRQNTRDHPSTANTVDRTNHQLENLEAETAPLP
T3 sequence (P41145 whole entry): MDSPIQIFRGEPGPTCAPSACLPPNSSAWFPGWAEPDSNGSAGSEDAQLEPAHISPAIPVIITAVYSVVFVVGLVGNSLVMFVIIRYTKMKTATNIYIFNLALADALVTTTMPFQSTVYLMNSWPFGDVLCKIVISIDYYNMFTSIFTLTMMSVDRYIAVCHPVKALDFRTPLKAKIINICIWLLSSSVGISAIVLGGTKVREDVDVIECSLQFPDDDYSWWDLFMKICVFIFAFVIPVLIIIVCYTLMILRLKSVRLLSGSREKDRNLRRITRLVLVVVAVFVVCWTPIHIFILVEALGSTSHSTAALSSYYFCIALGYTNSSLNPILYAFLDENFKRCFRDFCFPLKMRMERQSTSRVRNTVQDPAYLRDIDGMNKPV

SMILES	inhibition at 10 µM [1] [%]	BZR % [2] [%]	Ki [2] [nM]	inhibition at 10 µM [3] [%]	inhibition at 50 µM [4] [%]	Ki [5] [nM]	inhibition at 10 µM [5, 10] [%]	Cell viability (%) Mouse microglia 50 μM [6] [%]	inhibition at 10 µM [4] [%]	inhibition at 10 µM [7] [%]	Cell viability (%) HEK293 120 μM [8] [%]	Cell viability (%) HEPG2 120 μM [9] [%]	Inhibition of NO production (%) Mouse microglia 50 μM [4] [%]	Ki [5, 11] [nM]	MOR % [1] [%]	DOR % [3] [%]	KOR % [5, 10] [%]
C#Cc1ccc2c(c1)C(c1ccccc1F)=N[C@@H](C)c1c(-c3nc(C)no3)ncn1-2 [GL-I-65, (S)-5-(8-Ethynyl-6-(2-fluorophenyl)-4-methyl-4H-benzo[f]imidazo[1,5-a][1,4]diazepin-3-yl)-3-methyl-1,2,4-oxadiazole]	2	79	1150	7	19 ± 9	222	88	100 ± 12									
C#Cc1ccc2c(c1)C(c1ccccc1F)=N[C@@H](C)c1c(-c3nc(CC)no3)ncn1-2 [GL-I-66, (S)-3-Ethyl-5-(8-ethynyl-6-(2-fluorophenyl)-4-methyl-4H-benzo[f]imidazo[1,5-a][1,4]diazepin-3-yl)-1,2,4-oxadiazole]	28	80	654	2	86 ± 11	212	92	71 ± 9	5 ± 2								
C#Cc1ccc2c(c1)C(c1ccccn1)=N[C@H](C)c1c(C(=O)OCC)ncn1-2 [GL-II-19]	17	71	1140	2			44	100 ± 11	32 ± 4	2 ± 2	90 ± 5	100 ± 9					
C#Cc1ccc2c(c1)C(c1ccccc1F)=NCc1c(-c3nc(C)no3)ncn1-2 [GL-III-23]								100 ± 2			65 ± 5	90 ± 13	28 ± 5				
Cc1noc(-c2ncn3c2[C@@H](C)N=C(c2ccccn2)c2cc(C4CC4)ccc2-3)n1 [GL-III-64]	7	92	1490	14	26 ± 10	2050	60	96 ± 10			75 ± 8	75 ± 10					
C#Cc1ccc2c(c1)C(c1ccccc1F)=NCc1c(-c3cnco3)ncn1-2 [KRM-II-18B]	11	97	38	20	0		89	100 ± 3						361			
C#Cc1ccc2c(c1)C(c1ccccn1)=NCc1c(-c3cnco3)ncn1-2 [KRM-II-81]		86	294					100 ± 5			96 ± 11	100 ± 12	0 ± 1		7	15	46
C#Cc1ccc2c(c1)C(c1ccccc1)=NCc1c(-c3cnco3)ncn1-2 [KRM-II-82]	5	95	96	20	0		78	100 ± 6						1200			
C#Cc1ccc2c(c1)C(c1ccccn1)=NCc1c(-c3nc(CC)no3)ncn1-2 [MP-III-080]	0	88	303	0	0		47	100 ± 14									
C#Cc1ccc2c(c1)C(c1ccccc1)=NCc1c(C(=O)NC)ncn1-2 [YT-III-31]								100 ± 8			96 ± 10	100 ± 7	0 ± 2				
C#Cc1ccc2c(c1)C(c1ccccc1F)=NCc1c(C(=O)OCCCOC(=O)c3ncn4c3CN=C(c3ccccc3F)c3cc(C#C)ccc3-4)ncn1-2 [YT-III-271]								100 ± 3					0 ± 4				
